Experimental data published in article PMC11356571, “The Comparative Metabolism of a Novel Hepatocellular Carcinoma Therapeutic Agent, 2,3-Diamino-N-(4-(benzo[d]thiazol-2-yl)phenyl)propanamide, in Human and Animal Hepatocytes” (Metabolites, 2024).
Structures can show the parent of a compound that is named as a salt.

How the values were obtained:
Type in all cases: in vitro ADME
rat hepatocytes = test: Metabolite characterization in rat hepatocytes; conditions: rat hepatocyte 1 h incubates of ETN101; ND:<1.2E+05 peak area
Procedure: (§1) We mixed 60 μL aliquots of 40 μM ETN101 in incubation medium and an equal volume of human, mouse, rat, dog, or monkey hepatocyte suspension in 96-well plates and incubated for 0 or 1 h in a CO2 incubator at 37 °C. The reactions were quenched by adding 120 µL of ice-cold acetonitrile to each well, and the cell suspension was sonicated for 5 min at 4 °C. Subsequently, centrifugation was carried out at 15,000× g for 10 min at 4 °C. Next, the supernatants were evaporated to dryness using a vacuum concentrator, and residues were re-dissolved in 70 μL of 30% acetonitrile. Each sample (5 μL aliquots) was analyzed using LC–HRMS system.
(§2) For metabolite characterization, a Vanquish HPLC system (Thermo Fisher Scientific, San José, CA, USA) coupled with a Q-Exactive Orbitrap mass spectrometer (Thermo Fisher Scientific Inc., Waltham, MA, USA) was used at Core Research Support Center for Natural Products and Medical Materials at Yeungnam University. […] The eluent from the column was directly injected into the mass spectrometer using a heated electrospray ionization (HESI) source in positive ionization mode. […] The spray voltage was 3.0 kV and the capillary temperature was 320 °C. Full scan MS^1 with a data-dependent MS^2 acquisition mode was applied to obtain MS^1 scan data ranging from m/z 80 to 900, at a resolution of 70,000, whereas data-dependent MS^2 spectra were acquired for the five most abundant peaks per cycle at a resolution of 35,000. The parallel reaction monitoring (PRM) mode was used to obtain the MS^2 spectra of putative metabolites detected at low peak intensities in the data-dependent MS^2 acquisition mode. Data were collected and interpreted using Thermo Scientific Xcalibur™ Software (Thermo Fisher Scientific).

dog hepatocytes = test: Metabolite characterization in dog hepatocytes; conditions: dog hepatocyte 1 h incubates of ETN101; ND:<1.2E+05 peak area
Procedure: as §1, §2

monkey hepatocytes = test: Metabolite characterization in monkey hepatocytes; conditions: monkey hepatocyte 1 h incubates of ETN101; ND:<1.2E+05 peak area
Procedure: as §1, §2

human hepatocytes = test: Metabolite characterization in human hepatocytes; conditions: human hepatocyte 1 h incubates of ETN101; ND:<1.2E+05 peak area
Procedure: as §1, §2

mouse hepatocytes = test: Metabolite characterization in mouse hepatocytes; conditions: mouse hepatocyte 1 h incubates of ETN101; ND:<1.2E+05 peak area
Procedure: as §1, §2

Row | Structure (SMILES) | Relative peak area (%) (rat hepatocytes) | Relative peak area (%) (dog hepatocytes) | Relative peak area (%) (monkey hepatocytes) | Relative peak area (%) (human hepatocytes) | Relative peak area (%) (mouse hepatocytes)
1 | O=S(=O)(O)Nc1ccc(-c2nc3ccccc3s2)cc1 [M10, CJM-126 sulfate] | < 0.1 | – | – | – | –
2 | Nc1ccc(-c2nc3ccccc3s2)cc1O [M5, 3′-OH-CJM-126] | < 0.1 | < 0.1 | < 0.1 | 0.1 | < 0.1
3 | O=C(O)[C@H]1O[C@@H](Nc2ccc(-c3nc4ccccc4s3)cc2)[C@H](O)[C@@H](O)[C@@H]1O [M9, CJM-126 glucuronide] | 0.1 | 0.5 | < 0.1 | 0.1 | < 0.1
4 | CC(=O)Nc1ccc(-c2nc3ccccc3s2)cc1 [M2, N-Acetyl-CJM-126] | 5.7 | – | 5.8 | 0.3 | 0.9
